Conditions: Pendant drop shape

CCn1cc[n+](C)c1.N#C[B-](C#N)(C#N)C#N [1-ethyl-3-methylimidazolium tetracyanoborate]
Conditions | surface tension liquid-gas [mN/m]
298.1 K | 49.1
307.8 K | 48.3
318 K | 47.4
328.7 K | 46.6
338.8 K | 45.8
343 K | 45.4

CCCCCCn1cc[n+](C)c1.N#CN=C=[N-] [1-hexyl-3-methylimidazolium dicyanamide]
Conditions | surface tension liquid-gas [mN/m]
298 K | 43
307.9 K | 42.2
318.4 K | 41.6
328.2 K | 41
338.5 K | 40.5
342.7 K | 40.2

CCn1cc[n+](C)c1.N#C[C-](C#N)C#N [1-ethyl-3-methyl-1H-imidazolium tricyanomethanide]
Conditions | surface tension liquid-gas [mN/m]
298.3 K | 51.1
308.1 K | 50.7
317.9 K | 49.9
328 K | 49.1
338.9 K | 48.5
343 K | 47.9

CCCCn1cc[n+](C)c1.N#C[S-] [1-butyl-3-methylimidazolium thiocyanate]
Conditions | surface tension liquid-gas [mN/m]
298.1 K | 44.6
308.2 K | 43.5
318.1 K | 43
328.3 K | 42.4
338.5 K | 41.9
342.9 K | 41.6

CCCCCCn1cc[n+](C)c1.N#C[B-](C#N)(C#N)C#N [1-hexyl-3-methylimidazolium tetracyanoborate]
Conditions | surface tension liquid-gas [mN/m]
298.6 K | 41.5
308.4 K | 40.8
318 K | 40
328 K | 39.2
338.5 K | 38.4
342.9 K | 38.2

CCCCn1cc[n+](C)c1.N#CN=C=[N-] [1-butyl-3-methylimidazolium dicyanamide]
Conditions | surface tension liquid-gas [mN/m]
298.4 K | 50.6
307.9 K | 50.3
318.1 K | 49.7
328.4 K | 48.6
339 K | 48.1
342.9 K | 47.5

Reference: the NIST ThermoML archive (doi:10.1016/j.fluid.2015.10.044)
